Experimental data reported in patent US10513511B2, “Aqueous suspension formulation comprising 4-(4-(4-(((3R,5R)-5-((1H-1,2,4-triazol-1-yl)methyl)-5-(2,4-difluoro-phenyl)tetrahydrofuran-3-yl)methoxy)-3-methylphenyl) or a pharmaceutically acceptable salt thereof” (PULMOCIDE LIMITED, priority 2015, dated 2019).
In brackets after ≈: the same amount, converted by molar mass.

Tests used:
[1] = test system: Aspergillus fumigatus (ATCC 13073); experiment: In vivo anti-fungal activity, therapeutic treatment of infected immunocompromised neutropenic mice; set-up: species or system A/J mice; details: for CFU in lung, % Inhibition of response / DNA in Lung / DNA in Lung, % Inhibition of response / GM in Serum / GM in serum, % Inhibition of response / CFU in lung: therapeutic; for CFU in lung: mean ± SEM, n = 6
Procedure: (§1) Aspergillus fumigatus (ATCC 13073 [strain: NIH 5233], American Type Culture Collection, Manassas, Va., USA) was grown on Malt agar (Nissui Pharmaceutical, Tokyo, Japan) plates for 6-7 days at RT (24±1° C.). Spores were aseptically dislodged from the agar plates and suspended in sterile distilled water with 0.05% Tween 80 and 0.1% agar. On the day of infection, spore counts were assessed by haemocytometer and the inoculum was adjusted to obtain a concentration of 1.67×10^8 spores mL^−1 of physiological saline. […] On day 0, animals were infected with the spore suspension (30 μL intra-nasally).
(§2) Test substances were administered intra-nasally (35 μL of a suspension (0.0032-10.0 mg/mL of drug substance in physiological saline) once daily, on days 1, 2 and 3 only (thereby representing a therapeutic treatment regimen). For extended prophylactic treatment, test compounds (35 μL of a suspension of 0.0032 or 0.016 mg/mL in physiological saline) were administered intra-nasally once daily for seven days. One group was dosed 30 min before infection on day 0 but not subsequently, while a second group was further dosed on days 1, 2 and 3 after infection. The effects of these treatment paradigms were compared with those obtained when treatment was restricted in other groups to either one day or 30 min before inoculation and then on days 1, 2 and 3 post infection in both cases. In a final group, dosing was limited still further with animals dosed twice, one day and 30 min before infection only.
(§3) Animal body weights were monitored daily and at 6 hr after the last dose of drug was administered on day 3, the animals were anesthetised, the tracheas cannulated and BALF blood and lung tissue were collected. The levels of IL-6 and TNFα in serum were determined using Quantikine® mouse IL-6 or TNF-α ELISA kit (R&D systems, Inc., Minneapolis, Minn., USA) respectively. Aspergillus GM in serum was determination using Platelia GM-EIA kits (Bio-Rad Laboratories, Redmond, Wash., USA). Cut-off index (COI) was calculated by the formula: Cut-off index=OD in sample/OD in cut-off control provided in kit. For tissue fungal load assays, 100 mg of lung tissue was removed aseptically and homogenized in 0.2 mL of 0.1% agar in sterile distilled water. Serially diluted lung homogenates were plated on Malt agar plates (50 μL/plate), and incubated at 24±1° C. for 72 to 96 h. The colonies of A. fumigatus on each plate were counted and the fungal titre presented herein as CFUs per gram of lung tissue.
For determination of Aspergillus fumigatus DNA content, DNA was extracted from either infected lungs or Aspergillus fumigatus with the Isoplant (Nippon Gene) according to the manufacture's instruction. The tissues cut to <3 mm in any length were mixed with solution I (extraction buffer: 300 μL). Solution II (lysis buffer; benzyl chloride: 150 μL) was then added to the mixtures followed by mixing with a vortex mixer for 5 seconds. After incubation at 50° C. for 15 min, solution III (sodium acetate, pH5.2: 150 μL) was added the mixtures agitated vigorously for 1-3 seconds and then incubated on ice for 15 min. After the incubation, the mixtures were centrifuged at 12,000 g for 15 min at 4° C. DNA in the upper aq phases of the supernatants was precipitated with 100% ethanol (×2.5 vol), washed with 70% ethanol and dissolved in 5-10 μL of TE buffer.
DNA amplification was performed with Premix Ex Taq™ (Takara Bio) in the 96-well optical reaction plate. Aspergillus fumigatus 18S rRNA gene fragments were amplified with the primer pair; 5′-GGCCCTTAA ATAGCCCGGT-3′ (SEQ ID No. 1) and 5′-[…]-3′ (SEQ ID No. 2), and hybridization probe; 5′-FAM-AGCCAGCGGCCCGCAAATG-TAMRA-3′ (SEQ ID No. 3). Real time PCR was performed in a (25 μL contained 50 ng of mouse DNA with 200 nM of probe) under the following conditions: initial incubation for 2 min at 50° C., initial denaturation for 10 min at 95° C., followed by 55 cycles of 15 seconds at 95° C. and 1 min at 65° C. […]

IL-6 = experiment: Serum IL-6 in Aspergillus fumigatus infected, immunocompromised, neutropenic mice; type: in vivo, A/J mice; details: for IL-6 in serum, % Inhibition / Conc of Biomarkers, IL-6 in serum: therapeutic; for Conc of Biomarkers, IL-6 in serum: mean ± SEM, N = 6
Procedure: as §1, §2, §3

BEAS2B cells = experiment: Cell viability: resazurin assay; type: cell-based; details: at concentrations indicated in Table 4
Procedure: BEAS2B cells were seeded in 384-well plates (100 μL; 3000/well/; BD Falcon, Catalogue No 353962) in RPMI-LHC8 (RPMI-1640 and LHC8 media combined in equal proportions) one day before experimentation. For cell-free control wells, RPMI-LHC8 (100 μL) was added. Test compounds (0.5 μL of a DMSO solution) were added to give a final DMSO concentration of 0.5% using an Integra VIAFLO 96 (Integra, Zizers, Switzerland). BEAS2B cells were incubated with each test compound for 1 day (37° C./5% CO2 in RPMI-LHC8). After addition of resazurin stock solution (5 μL, 0.04%) the plates were incubated for a further 4 hr (37° C./5% CO2). The fluorescence of each well at 545 nm (excitation) and 590 nm (emission) was determined using a multi-scanner (Clariostar: BMG Labtech). The percentage loss of cell viability was calculated for each well relative to vehicle (0.5% DMSO) treatment. Where appropriate, a CC50 value was calculated from the concentration-response curve generated from the concentration-response curve for each test compound.

[2] = Therapeutic Regimen, intranasal

CC[C@@H]([C@H](C)O)n1ncn(-c2ccc(N3CCN(c4ccc(OC[C@@H]5CO[C@@](Cn6cncn6)(c6ccc(F)cc6F)C5)cc4)CC3)cc2)c1=O [Posaconazole, reference compound]
ID50 Values, GM in serum [1, 2]: 590 µg/mL (≈ 842 µM)
ID50 Values, Lung Fungal Load [1, 2]: 390 µg/mL (≈ 557 µM)

Cc1cc(N2CCN(c3ccc(C(=O)N[C@H]4CCCC[C@@H]4O)cc3)CC2)ccc1OC[C@@H]1CO[C@@](Cn2cncn2)(c2ccc(F)cc2F)C1 [Compound (Ia), 4-(4-(4-(((3R,5R)-5-((1H-1,2,4-triazol-1-yl)methyl)-5-(2,4-difluorophenyl)tetrahydrofuran-3-yl)methoxy)-3-methylphenyl)piperazin-1-yl)-N-((1S,2S)-2-hydroxycyclohexyl) benzamide]
IL-6 in serum, % Inhibition (IL-6; Drug Conc 3.2 μg/mL): 17%
Conc of Biomarkers, IL-6 in serum (IL-6; Drug Conc 3.2 μg/mL): 247 ± 185 pg/mL
IL-6 in serum, % Inhibition (IL-6; Drug Conc 16 μg/mL): 12%
Conc of Biomarkers, IL-6 in serum (IL-6; Drug Conc 16 μg/mL): 262 ± 185 pg/mL
IL-6 in serum, % Inhibition (IL-6; Drug Conc 80 μg/mL): 78%
Conc of Biomarkers, IL-6 in serum (IL-6; Drug Conc 80 μg/mL): 66.5 ± 32.9 pg/mL
ID50 Values for biomarkers indicated, IL-6 (IL-6; serum, title: Therapeutic Treatment): 50 µg/mL
CFU in lung, % Inhibition of response ([1]; Drug Conc 3.2 μg/mL intranasal): 19%
DNA in Lung ([1]; Drug Conc 3.2 μg/mL intranasal): 41.7 ± 29.0 pg/50 ng mouse DNA
DNA in Lung, % Inhibition of response ([1]; Drug Conc 3.2 μg/mL intranasal): 41%
GM in Serum ([1]; Drug Conc 3.2 μg/mL intranasal): 2.85 ± 2.76 COI
GM in serum, % Inhibition of response ([1]; Drug Conc 3.2 μg/mL intranasal): 16%
CFU in lung ([1]; Drug Conc 3.2 μg/mL intranasal): 25.8 ± 20.8 /mg of lung
CFU in lung, % Inhibition of response ([1]; Drug Conc 16 μg/mL intranasal): 24%
DNA in Lung ([1]; Drug Conc 16 μg/mL intranasal): 56.1 ± 53.4 pg/50 ng mouse DNA
DNA in Lung, % Inhibition of response ([1]; Drug Conc 16 μg/mL intranasal): 21%
GM in Serum ([1]; Drug Conc 16 μg/mL intranasal): 3.01 ± 2.14 COI
GM in serum, % Inhibition of response ([1]; Drug Conc 16 μg/mL intranasal): 11%
CFU in lung ([1]; Drug Conc 16 μg/mL intranasal): 24.2 ± 15.8 /mg of lung
CFU in lung, % Inhibition of response ([1]; Drug Conc 80 μg/mL intranasal): 71%
DNA in Lung ([1]; Drug Conc 80 μg/mL intranasal): 4.10 ± 4.60 pg/50 ng mouse DNA
DNA in Lung, % Inhibition of response ([1]; Drug Conc 80 μg/mL intranasal): 94%
GM in Serum ([1]; Drug Conc 80 μg/mL intranasal): 0.53 ± 0.38 COI
GM in serum, % Inhibition of response ([1]; Drug Conc 80 μg/mL intranasal): 84%
CFU in lung ([1]; Drug Conc 80 μg/mL intranasal): 9.30 ± 5.20 /mg of lung
ID50 Values, A. fumigatus DNA in Lung [1, 2]: 50 µg/mL (≈ 72.8 µM)
ID50 Values, GM in serum [1, 2]: 47 µg/mL (≈ 68.4 µM)
ID50 Values, Lung Fungal Load [1, 2]: 51 µg/mL (≈ 74.3 µM)
effect on the viability of BEAS2B bronchial epithelial cells (BEAS2B cells): no or little effect
